Test results: ChEMBL document CHEMBL1909046, “DrugMatrix in vitro pharmacology data”
pIC50, pKi: −log10 of the molar value.

Legend:
[1] = biological target: 5-hydroxytryptamine receptor 4 (Cavia porcellus, UniProt O70528); assay type: cell membranes, Dunkin-Hartley, Striatum, Membrane; further: in other assays of this panel Not Active means under 50% inhibition at 10 µM
Substance-P receptor = Substance-P receptor (Homo sapiens, UniProt P25103); assay type: cell membranes, CHO, Membrane; conditions: cho; further: in other assays of this panel Not Active means under 50% inhibition at 10 µM
Chain of Substance-P receptor (P25103 whole entry): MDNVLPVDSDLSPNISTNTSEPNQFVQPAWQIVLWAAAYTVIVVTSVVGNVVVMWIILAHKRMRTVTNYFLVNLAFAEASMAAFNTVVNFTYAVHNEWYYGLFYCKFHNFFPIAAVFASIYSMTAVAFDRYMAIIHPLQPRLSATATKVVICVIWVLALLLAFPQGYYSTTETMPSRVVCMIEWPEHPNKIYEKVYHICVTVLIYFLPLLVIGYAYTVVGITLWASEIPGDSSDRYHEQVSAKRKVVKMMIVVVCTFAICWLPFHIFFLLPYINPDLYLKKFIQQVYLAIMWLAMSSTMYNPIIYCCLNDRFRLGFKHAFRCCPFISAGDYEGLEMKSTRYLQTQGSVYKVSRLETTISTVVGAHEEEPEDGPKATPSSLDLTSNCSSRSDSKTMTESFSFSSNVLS

[2] = biological target: T1, Vasoactive intestinal polypeptide receptor 1 (Homo sapiens, UniProt P32241); assay type: cell membranes, Membrane; conditions: ht-29; further: in other assays of this panel Not Active means under 50% inhibition at 10 µM
T1 sequence (P32241 whole entry): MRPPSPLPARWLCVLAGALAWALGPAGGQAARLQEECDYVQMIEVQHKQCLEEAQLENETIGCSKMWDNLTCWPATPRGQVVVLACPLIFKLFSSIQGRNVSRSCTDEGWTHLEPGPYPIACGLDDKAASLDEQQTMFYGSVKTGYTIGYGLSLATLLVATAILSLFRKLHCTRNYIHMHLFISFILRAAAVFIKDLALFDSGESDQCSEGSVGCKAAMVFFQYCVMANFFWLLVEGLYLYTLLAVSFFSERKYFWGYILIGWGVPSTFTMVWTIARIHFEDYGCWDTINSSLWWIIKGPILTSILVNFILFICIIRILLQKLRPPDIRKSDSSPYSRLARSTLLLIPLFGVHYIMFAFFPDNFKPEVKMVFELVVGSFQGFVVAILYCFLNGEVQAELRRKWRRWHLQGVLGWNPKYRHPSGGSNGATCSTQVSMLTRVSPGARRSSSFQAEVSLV

[3] = biological target: T2, Nitric oxide synthase, inducible (Mus musculus, UniProt P29477); set-up: species or system Escherichia coli;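 further: inhibition of iNOS enzyme activity measured with L-arginine as substrate; in other assays of this panel Not Active means under 50% inhibition at 10 µM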
T2 sequence (P29477 whole entry): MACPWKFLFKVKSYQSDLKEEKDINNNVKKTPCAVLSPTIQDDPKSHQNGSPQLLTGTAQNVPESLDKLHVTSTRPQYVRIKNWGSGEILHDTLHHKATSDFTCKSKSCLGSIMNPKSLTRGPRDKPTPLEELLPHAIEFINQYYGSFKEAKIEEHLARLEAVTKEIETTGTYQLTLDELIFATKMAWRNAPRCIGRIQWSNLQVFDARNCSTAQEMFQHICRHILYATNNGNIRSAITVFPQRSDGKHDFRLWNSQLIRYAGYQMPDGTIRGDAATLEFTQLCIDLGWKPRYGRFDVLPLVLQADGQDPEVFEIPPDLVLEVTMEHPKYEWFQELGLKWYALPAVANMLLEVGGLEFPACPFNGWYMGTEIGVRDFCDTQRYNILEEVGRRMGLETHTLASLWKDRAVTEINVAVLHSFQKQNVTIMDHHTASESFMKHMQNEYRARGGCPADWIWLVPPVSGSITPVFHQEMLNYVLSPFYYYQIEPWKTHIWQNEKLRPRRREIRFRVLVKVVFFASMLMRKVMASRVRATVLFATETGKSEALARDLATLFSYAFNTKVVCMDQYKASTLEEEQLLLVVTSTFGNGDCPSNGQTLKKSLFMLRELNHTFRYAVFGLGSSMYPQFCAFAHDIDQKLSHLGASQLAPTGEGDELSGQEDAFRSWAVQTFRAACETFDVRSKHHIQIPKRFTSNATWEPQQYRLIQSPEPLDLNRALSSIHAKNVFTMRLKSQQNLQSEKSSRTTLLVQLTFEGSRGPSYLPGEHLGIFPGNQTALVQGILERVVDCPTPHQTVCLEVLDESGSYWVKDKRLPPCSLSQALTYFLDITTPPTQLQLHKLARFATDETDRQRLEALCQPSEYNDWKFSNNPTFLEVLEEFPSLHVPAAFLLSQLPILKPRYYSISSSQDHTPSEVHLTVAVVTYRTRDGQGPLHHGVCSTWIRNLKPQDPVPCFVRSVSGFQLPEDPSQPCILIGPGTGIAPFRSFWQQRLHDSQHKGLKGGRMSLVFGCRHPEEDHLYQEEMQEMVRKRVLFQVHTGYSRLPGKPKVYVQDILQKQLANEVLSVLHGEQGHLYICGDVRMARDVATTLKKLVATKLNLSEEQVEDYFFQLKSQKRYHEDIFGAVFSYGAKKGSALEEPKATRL

[4] = biological target: Mitogen-activated protein kinase 3 (Homo sapiens, UniProt P27361); assay: DRUGMATRIX: Protein Serine/Threonine Kinase, ERK1 enzyme inhibition (substrate: Myelin Basic Protein); set-up: species or system Escherichia coli; conditions: Not Active = under 50% inhibition at 10 µM
Chain of Mitogen-activated protein kinase 3 (P27361 whole entry): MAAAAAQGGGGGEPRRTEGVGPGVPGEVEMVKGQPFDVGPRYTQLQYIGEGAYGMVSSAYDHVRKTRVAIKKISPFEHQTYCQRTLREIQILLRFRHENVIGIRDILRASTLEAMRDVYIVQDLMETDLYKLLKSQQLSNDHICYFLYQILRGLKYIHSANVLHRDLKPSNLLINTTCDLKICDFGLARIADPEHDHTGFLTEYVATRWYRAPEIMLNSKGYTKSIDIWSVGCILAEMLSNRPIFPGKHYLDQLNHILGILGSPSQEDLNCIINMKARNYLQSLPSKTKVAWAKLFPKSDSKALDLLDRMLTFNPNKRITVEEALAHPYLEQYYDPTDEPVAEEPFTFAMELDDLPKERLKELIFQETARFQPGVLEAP

[5] = biological target: Mitogen-activated protein kinase 1 (Homo sapiens, UniProt P28482); assay: DRUGMATRIX: Protein Serine/Threonine Kinase, ERK2 enzyme inhibition (substrate: Myelin Basic Protein); set-up: species or system Escherichia coli; conditions: Not Active = under 50% inhibition at 10 µM
Chain of Mitogen-activated protein kinase 1 (P28482 whole entry): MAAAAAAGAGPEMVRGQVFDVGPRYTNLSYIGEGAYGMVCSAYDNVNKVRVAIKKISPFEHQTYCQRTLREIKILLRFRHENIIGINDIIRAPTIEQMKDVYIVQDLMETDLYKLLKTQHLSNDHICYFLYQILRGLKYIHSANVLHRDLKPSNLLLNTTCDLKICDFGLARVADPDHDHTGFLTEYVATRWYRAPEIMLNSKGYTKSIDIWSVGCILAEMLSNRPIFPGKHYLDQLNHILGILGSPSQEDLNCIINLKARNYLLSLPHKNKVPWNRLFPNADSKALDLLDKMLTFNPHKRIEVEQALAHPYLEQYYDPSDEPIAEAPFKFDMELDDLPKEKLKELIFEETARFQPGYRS

[6] = biological target: T3, 5-hydroxytryptamine receptor 1A (Rattus norvegicus, UniProt P19327); assay type: cell membranes, CHO-K1, Membrane; conditions: for IC50 / Ki: cho-k1
T3 sequence (P19327 whole entry): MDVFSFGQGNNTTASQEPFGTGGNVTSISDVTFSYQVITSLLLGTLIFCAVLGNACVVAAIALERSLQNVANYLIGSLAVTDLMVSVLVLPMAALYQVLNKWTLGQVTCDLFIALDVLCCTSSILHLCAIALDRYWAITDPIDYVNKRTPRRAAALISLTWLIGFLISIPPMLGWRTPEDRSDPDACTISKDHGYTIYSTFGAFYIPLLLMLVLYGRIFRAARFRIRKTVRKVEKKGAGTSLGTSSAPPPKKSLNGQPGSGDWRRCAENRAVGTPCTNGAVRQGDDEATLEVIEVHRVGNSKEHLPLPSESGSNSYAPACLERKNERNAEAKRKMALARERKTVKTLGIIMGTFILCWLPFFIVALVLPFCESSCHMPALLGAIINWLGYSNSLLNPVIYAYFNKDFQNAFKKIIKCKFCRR

Chain of 5-hydroxytryptamine receptor 4 (O70528 whole entry): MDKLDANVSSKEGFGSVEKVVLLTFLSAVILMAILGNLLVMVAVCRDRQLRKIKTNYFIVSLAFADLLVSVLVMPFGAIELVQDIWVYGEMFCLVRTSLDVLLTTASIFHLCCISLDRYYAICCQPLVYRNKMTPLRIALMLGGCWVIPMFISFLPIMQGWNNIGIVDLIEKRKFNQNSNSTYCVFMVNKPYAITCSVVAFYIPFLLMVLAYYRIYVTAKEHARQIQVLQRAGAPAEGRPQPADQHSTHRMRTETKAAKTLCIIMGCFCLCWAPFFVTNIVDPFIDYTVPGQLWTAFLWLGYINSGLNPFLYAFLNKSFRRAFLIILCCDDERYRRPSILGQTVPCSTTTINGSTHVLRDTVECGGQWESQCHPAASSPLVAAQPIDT

Row | Compound | IC50 [1] | IC50 (Substance-P receptor) | IC50 [2] | IC50 [3] | IC50 [4] | IC50 [5] | IC50 [6] | pIC50 ([6]; read-out: IC50) | pKi ([6]; read-out: Ki) | Ki [1] | Ki (Substance-P receptor) | Ki [2] | Ki [3] | Ki [4] | Ki [5] | Ki [6]
1 | CC(=O)[C@H]1[C@H](C#N)C[C@H]2[C@@H]3CC=C4C[C@@H](O)CC[C@]4(C)[C@H]3CC[C@@]21C [PREGNENOLONE CARBONITRILE] | Not Active | Not Active | Not Active | Not Active | Not Active | Not Active | Not Active |  |  |  |  |  |  |  |  | 
2 | CCCN(CCC)S(=O)(=O)c1ccc(C(=O)O)cc1 [PROBENECID] | Not Active | Not Active | Not Active | Not Active | Not Active | Not Active | Not Active |  |  |  |  |  |  |  |  | 
3 | CCCNCC(O)COc1ccccc1C(=O)CCc1ccccc1 (stereo not given) [PROPAFENONE] | Not Active | Not Active | Not Active | Not Active | Not Active | Not Active |  | 5.79 | 6.03 |  |  |  |  |  |  | 
4 | CCCOc1ccc(C(=O)OCCN(CC)CC)cc1N [PROPARACAINE] | Not Active | Not Active | Not Active | Not Active | Not Active | Not Active | Not Active |  |  |  |  |  |  |  |  | 
5 | CC(C)c1cccc(C(C)C)c1O [PROPOFOL] | Not Active | Not Active | Not Active | Not Active | Not Active | Not Active | Not Active |  |  |  |  |  |  |  |  | 
6 | C[C@@H]1O[C@@H](O[C@@H]2C=C3CC[C@@H]4[C@H](CC[C@]5(C)[C@@H](c6ccc(=O)oc6)CC[C@]45O)[C@@]3(C)CC2)[C@H](O)[C@H](O)[C@H]1O [PROSCILLARIDIN] | Not Active | Not Active | Not Active | Not Active | Not Active | Not Active | Not Active |  |  |  |  |  |  |  |  | 
7 | Oc1cccc(O)c1O [PYROGALLOL] | Not Active | Not Active | Not Active | Not Active | Not Active | Not Active | Not Active |  |  |  |  |  |  |  |  | 
8 | AURANOFIN | Not Active | Not Active | Not Active | Not Active | Not Active | Not Active | Not Active |  |  | Not Active | Not Active | Not Active | Not Active | Not Active | Not Active | Not Active
9 | GADOPENTETATE DIMEGLUMINE | Not Active | Not Active | Not Active | Not Active | Not Active | Not Active | Not Active |  |  | Not Active | Not Active | Not Active | Not Active | Not Active | Not Active | Not Active
10 | GENTAMICIN | Not Active | Not Active | Not Active | Not Active | Not Active | Not Active | Not Active |  |  | Not Active | Not Active | Not Active | Not Active | Not Active | Not Active | Not Active
11 | GRAMICIDIN | Not Active | Not Active | Not Active | Not Active | Not Active | Not Active | Not Active |  |  | Not Active | Not Active | Not Active | Not Active | Not Active | Not Active | Not Active
12 | NYSTATIN | Not Active | Not Active | Not Active | Not Active | Not Active | Not Active | Not Active |  |  | Not Active | Not Active | Not Active | Not Active | Not Active | Not Active | Not Active
